Key:
Format in all cases: biochemical
CDK2 kinase = CDK2 kinase (Homo sapiens, UniProt P24941); test: enzymatic kinase inhibition assay, CDK2/cyclin E
CDK9 = CDK9 (Homo sapiens, UniProt P50750); test: SelectScreen kinase selectivity panel
CDC7 kinase = CDC7 kinase (Homo sapiens, UniProt O00311); test: TR-FRET
Chain of CDC7 kinase (O00311 whole entry): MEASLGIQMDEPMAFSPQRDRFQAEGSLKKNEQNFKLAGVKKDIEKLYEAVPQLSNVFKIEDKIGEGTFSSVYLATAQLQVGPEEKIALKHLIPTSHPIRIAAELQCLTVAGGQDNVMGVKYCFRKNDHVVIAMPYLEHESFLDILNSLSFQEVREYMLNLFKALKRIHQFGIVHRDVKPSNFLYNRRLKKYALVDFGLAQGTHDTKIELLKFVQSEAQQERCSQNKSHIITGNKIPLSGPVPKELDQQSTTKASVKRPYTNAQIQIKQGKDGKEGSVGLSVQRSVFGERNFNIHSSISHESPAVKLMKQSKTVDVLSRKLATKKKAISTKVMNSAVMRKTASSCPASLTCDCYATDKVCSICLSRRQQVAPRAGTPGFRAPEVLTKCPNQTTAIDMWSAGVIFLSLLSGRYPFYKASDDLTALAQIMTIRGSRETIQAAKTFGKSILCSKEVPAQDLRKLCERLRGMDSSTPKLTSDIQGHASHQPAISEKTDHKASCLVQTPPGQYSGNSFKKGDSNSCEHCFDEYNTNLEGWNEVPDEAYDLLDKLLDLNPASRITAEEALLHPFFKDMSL
Chain of CDC7 kinase (Q9UBU7 whole entry partner): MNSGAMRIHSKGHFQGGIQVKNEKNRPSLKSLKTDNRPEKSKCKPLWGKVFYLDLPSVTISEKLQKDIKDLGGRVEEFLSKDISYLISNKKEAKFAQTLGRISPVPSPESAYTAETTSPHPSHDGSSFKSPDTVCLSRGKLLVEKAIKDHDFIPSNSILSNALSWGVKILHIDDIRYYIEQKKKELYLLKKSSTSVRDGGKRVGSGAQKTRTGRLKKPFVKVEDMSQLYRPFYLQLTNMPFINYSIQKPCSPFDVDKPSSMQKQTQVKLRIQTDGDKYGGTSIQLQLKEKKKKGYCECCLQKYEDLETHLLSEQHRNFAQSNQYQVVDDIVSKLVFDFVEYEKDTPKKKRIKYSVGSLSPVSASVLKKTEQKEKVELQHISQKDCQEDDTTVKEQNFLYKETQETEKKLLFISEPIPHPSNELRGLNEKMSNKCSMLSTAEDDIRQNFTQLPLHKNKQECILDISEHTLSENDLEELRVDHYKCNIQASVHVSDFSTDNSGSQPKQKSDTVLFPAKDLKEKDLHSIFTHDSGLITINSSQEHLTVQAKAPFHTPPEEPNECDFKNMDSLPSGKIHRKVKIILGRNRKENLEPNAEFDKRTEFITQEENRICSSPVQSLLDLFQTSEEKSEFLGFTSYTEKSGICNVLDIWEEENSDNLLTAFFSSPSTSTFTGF

Chain of CDK9 (P50750 whole entry): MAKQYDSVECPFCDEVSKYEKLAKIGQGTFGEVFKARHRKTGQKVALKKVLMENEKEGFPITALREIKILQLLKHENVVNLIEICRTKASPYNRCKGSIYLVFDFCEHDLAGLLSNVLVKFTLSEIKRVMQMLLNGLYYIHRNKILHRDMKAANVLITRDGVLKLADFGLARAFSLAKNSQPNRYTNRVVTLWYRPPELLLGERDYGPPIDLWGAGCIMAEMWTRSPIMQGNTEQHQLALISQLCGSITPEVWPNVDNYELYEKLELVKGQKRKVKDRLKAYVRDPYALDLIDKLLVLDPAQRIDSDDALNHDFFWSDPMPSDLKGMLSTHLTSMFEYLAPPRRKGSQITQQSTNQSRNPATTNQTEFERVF

Q: Which results are given for `Cc1n[nH]cc1-c1cc2nc([C@@H]3CC4CCN3CC4)[nH]c(=O)c2s1` [TAK-931, 2-[(2S)-1-azabicyclo[2.2.2]oct-2-yl]-6-(3-methyl-1H-pyrazol-4-yl)thieno[3,2-d]pyrimidin-4(3H)-one hemihydrate]?
A: IC50 (CDK2 kinase): 6.3 µM; SelectScreen kinase selectivity panel (fig. S1B) (CDK9): CDK9, which is the second high-affinity target of TAK-931 (fig. S1B); IC50 (CDC7 kinase): < 0.0003 µM
